Source: patent US6806257B1, “Flavones as inducible nitric oxide synthase inhibitors, cyclooxygenase-2 inhibitors and potassium channel activators” (priority 1999, dated 2004)

System: iNOS
Experiment: LPS-induced iNOS expression in RAW264.7 macrophages (western/northern blot)
Type: cell-based, mouse
Protocol: Cells. RAW264.7, a mouse macrophage cell line, was obtained from American Type Culture Collection. Cells were cultured in RPMI-1640 medium (available from Gibco Life Technology, in Gaithersburg, Md.) supplemented with 2 mM L-glutamine, antibiotics (100 units/ml penicillin-A and 100 units/ml streptomycin) and 10% heat-inactivated fetal bovine serum (Gibco/BRL) and maintained at 37° C in a humidified incubator containing 5% CO2.
Western blots. Total cellular extract, cytosolic fractions (for IkB) and nuclear fraction (for p65 antibody) were prepared according to Muller et al., Immunobiology, 187, 233-256, 1993 and separated on sodium dodecyl sulfatepolyacrylamide minigels (8% for iNOS or COX-2, and 10% for IkB or p65) and transferred to immobilon polyvinylidene difluoride membranes (Millipore, Bedford, Mass.). The membrane was incubated overnight at 4° C. with 1% bovine serum albumin and then incubated with anti-iNos, COX-2, α-Tubulin monoclonal antibodies (Transduction Laboratories, Lexington, Ky.), anti-IkB or anti-p65 polyclonal antibodies (Santa Cruz Biochemicals, Santa Cruz, Calif.). iNOS, IkB, p65, Cox-2, α-Tubulin were detected by NBT and BCIP staining (Sigma Chemical Co., St. Louis, Mo.).
Northern blot analysis. Total RNA (20 μg/lane) were separated by electrophoresis on 1.2% agarose gel containing 6.7% formaldehyde and transformed to a Hybond-N nylon membrane (American Life Science) in 20×standard saline citrate (3 M sodium chloride and 0.3 M sodium citrate, pH 7.0). After heating at 80° C. for 2 hours and prehybridization for 4 hours, the filters were hybridized with ^32P-labeled murine iNOS cDNA probes at a concentration of 3×10^6 cpm/ml for 16-18 hours at 42° C. The probe was labeled with [α-32P] dCTP by using Random Primer labeling kit (Stratagene, La Jolla, Calif.). Then, the filters were washed, dried and autoradiographed with Kodak-X-Omat XAR-film using intensifying screens at −80° C.

Compound: COc1c(O)cc2oc(-c3ccccc3)cc(=O)c2c1O [oroxylin A, 5,7-dihydroxy-6-methoxy flavone]
- blocking LPS-induced iNOS gene expression, comparison among compounds tested: most potent among the compounds tested
- LPS-induced iNOS protein (100 ng/ml LPS, western blot): inhibited LPS-induced iNOS protein in a concentration-dependent manner
